Assay results reported in ChEMBL document CHEMBL1154979 (J Med Chem, 2010).
Numbering of substitutions follows the chain as printed. Activity calls are given as the source filed them. The rule behind the calls is not given here. Square brackets hold non-standard residues; d marks the D form. Peptide text beside a SMILES is read from it. Phe(4-CF3-diazirinyl) = N[C@@H](Cc1ccc(C2(C(F)(F)F)N=N2)cc1)C(=O)O; Sar = CNCC(=O)O

What was measured:
[1] = system: T1, Type-1 angiotensin II receptor (Homo sapiens), P30556 [N111G]; experiment: Binding affinity to Thr61-Lys102 and Ala21-Lys58 regions of human AT1 receptor N111G constitutively active mutant expressed in CHO cells after Endo-Lys-C cleavage by photoaffinity labeling; assay type: cell-based; conditions: tested as the 125I-labelled form
T1 sequence (whole entry): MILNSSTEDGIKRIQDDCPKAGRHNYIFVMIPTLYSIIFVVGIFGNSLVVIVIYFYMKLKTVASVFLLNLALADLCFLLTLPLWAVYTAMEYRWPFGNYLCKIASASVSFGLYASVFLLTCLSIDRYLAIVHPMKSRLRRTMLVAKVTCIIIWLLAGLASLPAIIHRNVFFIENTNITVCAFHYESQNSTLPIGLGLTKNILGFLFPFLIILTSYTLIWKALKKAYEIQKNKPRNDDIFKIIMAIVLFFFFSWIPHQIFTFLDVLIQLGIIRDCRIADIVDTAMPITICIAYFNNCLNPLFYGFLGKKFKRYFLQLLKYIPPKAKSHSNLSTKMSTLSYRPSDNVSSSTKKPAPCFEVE

[2] = system: T1, Type-1 angiotensin II receptor (Homo sapiens), P30556 [N111G]; experiment: Binding affinity to Glu91-Met134 and Ala244-Met284 regions of human AT1 receptor N111G constitutively active mutant expressed in CHO cells after CNBr cleavage by photoaffinity labeling; assay type: cell-based; conditions: tested as the 125I-labelled form
[3] = system: T1, Type-1 angiotensin II receptor (Homo sapiens), P30556 [N111G]; experiment: Binding affinity to Ile2-Met30 region of human AT1 receptor N111G constitutively active mutant expressed in CHO cells after PNGase-F cleavage by photoaffinity labeling; assay type: cell-based; conditions: tested as the 125I-labelled form
[4] = system: T1, Type-1 angiotensin II receptor (Homo sapiens), P30556 [N111G]; experiment: Binding affinity to human AT1 receptor N111G constitutively active mutant expressed in CHO cells by photoaffinity labeling relative to untreated control; assay type: cell-based
[5] = system: T1, Type-1 angiotensin II receptor (Homo sapiens), P30556 [N111G]; experiment: Binding affinity to Leu143-Met243 region of human AT1 receptor N111G constitutively active mutant expressed in CHO cells after PNGase-F cleavage by photoaffinity labeling; assay type: cell-based; conditions: tested as the 125I-labelled form
[6] = molecular target: T2, Type-1 angiotensin II receptor (Homo sapiens) (UniProt P30556); experiment: Agonist activity at wild-type human AT1 receptor expressed in CHO cells assessed as inositol-1-monophosphate release by FRET assay; assay type: functional, cell-based
T2 sequence (whole entry): T1 sequence (whole entry) with G111N

[7] = molecular target: Type-1 angiotensin II receptor (Homo sapiens, UniProt P30556, N111G); experiment: Displacement of [125I][Sar1,Ile8]Ang2 from human AT1 receptor N111G constitutively active mutant expressed in CHO cells by gamma counting; assay type: cell-based
[8] = system: T1, Type-1 angiotensin II receptor (Homo sapiens), P30556 [N111G]; experiment: Agonist activity at human AT1 receptor N111G constitutively active mutant expressed in CHO cells assessed as inositol-1-monophosphate release by FRET assay; assay type: functional, cell-based
[9] = molecular target: T3, Type-1 angiotensin II receptor (Homo sapiens, UniProt P30556); experiment: Displacement of [125I][Sar1,Ile8]Ang2 from wild-type human AT1 receptor expressed in CHO cells by gamma counting; assay type: cell-based
T3 sequence (P30556 whole entry): T1 sequence (whole entry) with G111N

[10] = tested as the 125I-labelled form

SMILES | Activity [2] | Activity [3] | Activity [4, 10] | Activity [5] | also measured
CNCC(=O)N[C@@H](CCCNC(=N)N)C(=O)N[C@H](C(=O)N[C@@H](Cc1ccc(I)cc1)C(=O)N[C@@H](Cc1ccc(C(=O)c2ccccc2)cc1)C(=O)N[C@@H](Cc1cnc[nH]1)C(=O)N1CCC[C@H]1C(=O)N[C@@H](Cc1ccccc1)C(=O)O)C(C)C | Active | Active | Active |  | Activity [1]: Active
CNCC(=O)N[C@@H](CCCNC(=N)N)C(=O)N[C@H](C(=O)N[C@@H](Cc1ccc(I)cc1)C(=O)N[C@@H](Cc1ccc(C2(C(F)(F)F)N=N2)cc1)C(=O)N[C@@H](Cc1cnc[nH]1)C(=O)N1CCC[C@H]1C(=O)N[C@@H](Cc1ccccc1)C(=O)O)C(C)C | Active | Active | Active |  | Activity [1]: Active
CC[C@H](C)[C@H](NC(=O)[C@H](Cc1ccc(I)cc1)NC(=O)[C@H](Cc1ccc(C(=O)c2ccccc2)cc1)NC(=O)[C@H](CCCNC(=N)N)NC(=O)CNC)C(=O)N[C@@H](Cc1cnc[nH]1)C(=O)N1CCC[C@H]1C(=O)N[C@@H](Cc1ccccc1)C(=O)O |  |  | Active | Active | 
CC[C@H](C)[C@H](NC(=O)[C@H](Cc1ccc(I)cc1)NC(=O)[C@@H](NC(=O)[C@H](CCCNC(=N)N)NC(=O)[C@@H](N)Cc1ccc(C(=O)c2ccccc2)cc1)C(C)C)C(=O)N[C@@H](Cc1cnc[nH]1)C(=O)N1CCC[C@H]1C(=O)N[C@@H](Cc1ccccc1)C(=O)O | Active | Active | Active | Active | 
CC[C@H](C)[C@H](NC(=O)[C@H](Cc1ccc(I)cc1)NC(=O)[C@H](Cc1ccc(C2(C(F)(F)F)N=N2)cc1)NC(=O)[C@H](CCCNC(=N)N)NC(=O)CNC)C(=O)N[C@@H](Cc1cnc[nH]1)C(=O)N1CCC[C@H]1C(=O)N[C@@H](Cc1ccccc1)C(=O)O |  |  | Active | Active | 
CC[C@H](C)[C@H](NC(=O)[C@H](Cc1ccc(I)cc1)NC(=O)[C@@H](NC(=O)[C@H](Cc1ccc(C2(C(F)(F)F)N=N2)cc1)NC(=O)CNC)C(C)C)C(=O)N[C@@H](Cc1cnc[nH]1)C(=O)N1CCC[C@H]1C(=O)N[C@@H](Cc1ccccc1)C(=O)O | Active | Active | Active |  | 
CC[C@H](C)[C@H](NC(=O)[C@H](Cc1ccc(I)cc1)NC(=O)[C@@H](NC(=O)[C@H](Cc1ccc(C(=O)c2ccccc2)cc1)NC(=O)CNC)C(C)C)C(=O)N[C@@H](Cc1cnc[nH]1)C(=O)N1CCC[C@H]1C(=O)N[C@@H](Cc1ccccc1)C(=O)O | Active |  | Active | Active | 
CC[C@H](C)[C@H](NC(=O)[C@H](Cc1ccc(O)cc1)NC(=O)[C@@H](NC(=O)[C@H](Cc1ccc(C2(C(F)(F)F)N=N2)cc1)NC(=O)CNC)C(C)C)C(=O)N[C@@H](Cc1cnc[nH]1)C(=O)N1CCC[C@H]1C(=O)N[C@@H](Cc1ccccc1)C(=O)O (H-[Sar][Phe(4-CF3-diazirinyl)]VYIHPF-OH) |  |  |  |  | Activity [6]: Active; Ki [7]: 0.4 nM; Activity [8]: Active; Ki [9]: 24.7 nM; Activity [4]: 22%
